Laboratory results taken from patent US10597388B2, “Pyridazinone herbicides” (FMC CORPORATION, priority 2014, dated 2020).

Experiments:
Format in all cases: in vivo
[1] = tested on: crabgrass, large (large crabgrass, Digitaria sanguinalis); experiment: Test C greenhouse herbicide test, pre- and postemergence
Description: (§1) Seeds of plant species selected from blackgrass (Alopecurus myosuroides), ryegrass, Italian (Italian ryegrass, Lolium multiflorum), wheat (winter wheat, Triticum aestivum), galium (catchweed bedstraw, Galium aparine), corn (Zea mays), large crabgrass, large (large crabgrass, Digitaria sanguinalis), foxtail, giant (giant foxtail, Setaria faberii), johnsongrass (Sorghum halepense), lambsquarters (Chenopodium album), morningglory (Ipomoea coccinea), nutsedge, yellow (yellow nutsedge, Cyperus esculentus), pigweed (Amaranthus retroflexus), ragweed (common ragweed, Ambrosia elatior), soybean (Glycine max), barnyardgrass (Echinochloa crus-galli), oilseed rape (Brassica napus), waterhemp (common waterhemp, Amaranthus rudis), and velvetleaf (Abutilon theophrasti) were planted into a blend of loam soil and sand and treated preemergence with test chemicals formulated in a non-phytotoxic solvent mixture which included a surfactant.
(§2) At the same time, plants selected from these crop and weed species and also chickweed (common chickweed, Stellaria media), kochia (Kochia scoparia), and oat, wild (wild oat, Avena fatua), were planted in pots containing Redi-Earth® planting medium (Scotts Company, 14111 Scottslawn Road, Marysville, Ohio 43041) comprising spaghnum peat moss, vermiculite, wetting agent and starter nutrients and treated with postemergence applications of test chemicals formulated in the same manner. Plants ranged in height from 2 to 18 cm (1- to 4-leaf stage) for postemergence treatments. Treated plants and controls were maintained in a greenhouse for 13 to 15 d, after which time all species were compared to controls and visually evaluated. Plant response ratings, summarized in Table C, are based on a scale of 0 to 100 where 0 is no effect and 100 is complete control. A dash (-) response means no test result.

corn (Zea mays) = experiment: as above
Description: as §1, §2

[2] = tested on: wheat (winter wheat, Triticum aestivum); experiment: as above
Description: as §1, §2

[3] = tested on: galium (catchweed bedstraw, Galium aparine); experiment: as above
Description: as §1, §2

[4] = tested on: velvetleaf (Abutilon theophrasti); experiment: as above
Description: as §1, §2

[5] = tested on: barnyardgrass (Echinochloa crus-galli); experiment: as above
Description: as §1, §2

[6] = tested on: oilseed rape (Brassica napus); experiment: as above
Description: as §1, §2

[7] = tested on: blackgrass (Alopecurus myosuroides); experiment: as above
Description: as §1, §2

soybean (Glycine max) = experiment: as above
Description: as §1, §2

[8] = tested on: ragweed (common ragweed, Ambrosia elatior); experiment: as above
Description: as §1, §2

[9] = tested on: pigweed (Amaranthus retroflexus); experiment: as above
Description: as §1, §2

[10] = tested on: foxtail, giant (giant foxtail, Setaria faberii); experiment: as above
Description: as §1, §2

[11] = tested on: waterhemp (common waterhemp, Amaranthus rudis); experiment: as above
Description: as §1, §2

[12] = tested on: johnsongrass (Sorghum halepense); experiment: as above
Description: as §1, §2

[13] = tested on: morningglory (Ipomoea coccinea); experiment: as above
Description: as §1, §2

[14] = tested on: oat, wild (wild oat, Avena fatua); experiment: Test C greenhouse herbicide test, postemergence
Summary of the method: (§3)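 Visual injury scores (0–100, where 100 means complete control) were assigned 13 to 15 d after postemergence application, by comparison with untreated plants. Treated seedlings stood 2 to 18 cm tall, at the 1- to 4-leaf stage.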

kochia (Kochia scoparia) = experiment: Test C greenhouse herbicide test, postemergence
Summary of the method: as §3

[15] = Postemergence, 31 g ai/ha, 0 to 100 scale (0 no effect, 100 complete control)
[16] = Postemergence, 125 g ai/ha, scale 0 to 100, 0 is no effect, 100 is complete control
[17] = Postemergence, 250 g ai/ha, scale 0 to 100, 0 no effect, 100 complete control, 13 to 15 d
[18] = Preemergence, 31 g ai/ha, scale 0 to 100, 0 is no effect, 100 is complete control
[19] = Preemergence, 62 g ai/ha, scale 0 to 100, 0 is no effect, 100 is complete control
[20] = Preemergence, 125 g ai/ha, scale 0 to 100, 0 is no effect, 100 is complete control
[21] = Preemergence, 250 g ai/ha, scale 0 to 100 (0 no effect, 100 complete control)
[22] = postemergence, 62 g ai/ha, scale 0 to 100, 0 no effect, 100 complete control

CCOC(=O)Oc1c(C)nn(C)c(=O)c1-c1c(CC)ccc2ccccc12 [Compound 37]
Crabgrass, Large plant response rating [1, 15]: 10 | Plant response rating, Crabgrass, Large [1, 16]: 25 | Plant response rating, Crabgrass, Large [1, 17]: 35 | Plant response rating, Crabgrass, Large [1, 18]: 5 | Plant response rating, Crabgrass, Large [1, 19]: 5 | Plant response rating, Crabgrass, Large [1, 20]: 20 | Crabgrass, Large plant response rating [1, 21]: 25 | Crabgrass, Large plant response rating [1, 22]: 20 | Corn plant response rating (corn (Zea mays); [15]): 0 | Plant response rating, Corn (corn (Zea mays); [16]): 20 | Plant response rating, Corn (corn (Zea mays); [17]): 30 | Plant response rating, Corn (corn (Zea mays); [18]): 0 | Plant response rating, Corn (corn (Zea mays); [19]): 0 | Plant response rating, Corn (corn (Zea mays); [20]): 0 | Corn plant response rating (corn (Zea mays); [21]): 20 | Corn plant response rating (corn (Zea mays); [22]): 10 | Wheat plant response rating [2, 15]: 30 | Plant response rating, Wheat [2, 16]: 30 | Plant response rating, Wheat [2, 17]: 35 | Plant response rating, Wheat [2, 18]: 0 | Plant response rating, Wheat [2, 19]: 0 | Plant response rating, Wheat [2, 20]: 5 | Wheat plant response rating [2, 21]: 45 | Wheat plant response rating [2, 22]: 0 | Galium plant response rating [3, 15]: 90 | Plant response rating, Galium [3, 16]: 95 | Plant response rating, Galium [3, 17]: 95 | Plant response rating, Galium [3, 18]: 100 | Plant response rating, Galium [3, 19]: 90 | Plant response rating, Galium [3, 20]: 95 | Galium plant response rating [3, 21]: 100 | Galium plant response rating [3, 22]: 95 | Velvetleaf plant response rating [4, 15]: 20 | Plant response rating, Velvetleaf [4, 16]: 85 | Plant response rating, Velvetleaf [4, 17]: 90 | Plant response rating, Velvetleaf [4, 18]: 25 | Plant response rating, Velvetleaf [4, 19]: 80 | Plant response rating, Velvetleaf [4, 20]: 85 | Velvetleaf plant response rating [4, 21]: 90 | Velvetleaf plant response rating [4, 22]: 70 | Barnyardgrass plant response rating [5, 15]: 25 | Plant response rating, Barnyardgrass [5, 16]: 60 | Plant response rating, Barnyardgrass [5, 17]: 90 | Plant response rating, Barnyardgrass [5, 18]: 10 | Plant response rating, Barnyardgrass [5, 19]: 30 | Plant response rating, Barnyardgrass [5, 20]: 70 | Barnyardgrass plant response rating [5, 21]: 80 | Barnyardgrass plant response rating [5, 22]: 20 | Oilseed Rape plant response rating [6, 15]: 40 | Plant response rating, Oilseed Rape [6, 16]: 40 | Plant response rating, Oilseed Rape [6, 17]: 50 | Plant response rating, Oilseed Rape [6, 18]: 0 | Plant response rating, Oilseed Rape [6, 19]: 40 | Plant response rating, Oilseed Rape [6, 20]: 60 | Oilseed Rape plant response rating [6, 21]: 90 | Oilseed Rape plant response rating [6, 22]: 20 | Blackgrass plant response rating [7, 15]: 35 | Plant response rating, Blackgrass [7, 16]: 80 | Plant response rating, Blackgrass [7, 17]: 85 | Plant response rating, Blackgrass [7, 18]: 10 | Plant response rating, Blackgrass [7, 19]: 30 | Plant response rating, Blackgrass [7, 20]: 90 | Blackgrass plant response rating [7, 21]: 90 | Blackgrass plant response rating [7, 22]: 40 | Soybean plant response rating (soybean (Glycine max); [15]): 10 | Plant response rating, Soybean (soybean (Glycine max); [16]): 15 | Plant response rating, Soybean (soybean (Glycine max); [17]): 25 | Plant response rating, Soybean (soybean (Glycine max); [18]): 0 | Plant response rating, Soybean (soybean (Glycine max); [19]): 30 | Plant response rating, Soybean (soybean (Glycine max); [20]): 20 | Soybean plant response rating (soybean (Glycine max); [21]): 65 | Soybean plant response rating (soybean (Glycine max); [22]): 5 | Ragweed plant response rating [8, 15]: 90 | Plant response rating, Ragweed [8, 16]: 98 | Plant response rating, Ragweed [8, 17]: 98 | Plant response rating, Ragweed [8, 18]: 85 | Plant response rating, Ragweed [8, 19]: 90 | Plant response rating, Ragweed [8, 20]: 95 | Ragweed plant response rating [8, 21]: 98 | Ragweed plant response rating [8, 22]: 95 | Pigweed plant response rating [9, 15]: 85 | Plant response rating, Pigweed [9, 16]: 95 | Plant response rating, Pigweed [9, 17]: 95 | Plant response rating, Pigweed [9, 18]: 98 | Plant response rating, Pigweed [9, 19]: 98 | Plant response rating, Pigweed [9, 20]: 100 | Pigweed plant response rating [9, 21]: 100 | Pigweed plant response rating [9, 22]: 100 | Foxtail, Giant plant response rating [10, 15]: 25 | Plant response rating, Foxtail, Giant [10, 16]: 60 | Plant response rating, Foxtail, Giant [10, 17]: 85 | Plant response rating, Foxtail, Giant [10, 18]: 65 | Plant response rating, Foxtail, Giant [10, 19]: 75 | Plant response rating, Foxtail, Giant [10, 20]: 85 | Foxtail, Giant plant response rating [10, 21]: 85 | Foxtail, Giant plant response rating [10, 22]: 35 | Waterhemp plant response rating [11, 15]: 85 | Plant response rating, Waterhemp [11, 16]: 80 | Plant response rating, Waterhemp [11, 17]: 98 | Plant response rating, Waterhemp [11, 18]: 90 | Plant response rating, Waterhemp [11, 19]: 95 | Plant response rating, Waterhemp [11, 20]: 95 | Waterhemp plant response rating [11, 21]: 100 | Waterhemp plant response rating [11, 22]: 80 | Johnsongrass plant response rating [12, 15]: 0 | Plant response rating, Johnsongrass [12, 16]: 5 | Plant response rating, Johnsongrass [12, 17]: 35 | Plant response rating, Johnsongrass [12, 18]: 0 | Plant response rating, Johnsongrass [12, 19]: 0 | Plant response rating, Johnsongrass [12, 20]: 5 | Johnsongrass plant response rating [12, 21]: 0 | Johnsongrass plant response rating [12, 22]: 5 | Morningglory plant response rating [13, 15]: 90 | Plant response rating, Morningglory [13, 16]: 98 | Plant response rating, Morningglory [13, 17]: 98 | Plant response rating, Morningglory [13, 18]: 70 | Plant response rating, Morningglory [13, 19]: 80 | Plant response rating, Morningglory [13, 20]: 90 | Morningglory plant response rating [13, 21]: 98 | Morningglory plant response rating [13, 22]: 95 | Oat, Wild plant response rating [14, 15]: 60 | Plant response rating, Oat, Wild [14, 16]: 90 | Plant response rating, Oat, Wild [14, 17]: 90 | Oat, Wild plant response rating [14, 22]: 80 | Kochia plant response rating (kochia (Kochia scoparia); [15]): 0 | Plant response rating, Kochia (kochia (Kochia scoparia); [16]): 5 | Plant response rating, Kochia (kochia (Kochia scoparia); [17]): 80 | Kochia plant response rating (kochia (Kochia scoparia); [22]): 0
